Source: ChEMBL document CHEMBL3758169, “4-Aminoindazolyl-dihydrofuro[3,4-d]pyrimidines as non-covalent inhibitors of mutant epidermal growth factor receptor tyrosine kinase” (Bioorg Med Chem Lett, 2016)

What was measured:
[1] = biological target: Serine/threonine-protein kinase B-raf (Homo sapiens) (UniProt P15056); assay: Inhibition of B-Raf (unknown origin) at 100 nM
[2] = biological target: G protein-coupled receptor kinase 3 (Homo sapiens) (UniProt P35626); assay: Inhibition of GRK3 (unknown origin) at 100 nM
[3] = biological target: Protein kinase C alpha type (Homo sapiens) (UniProt P17252); assay: Inhibition of PKCalpha (unknown origin) at 100 nM
[4] = tested on: Leucine-rich repeat serine/threonine-protein kinase 2 (Homo sapiens), Q5S007 [G2019S]; assay: Inhibition of LRRK2 G2019S mutant (unknown origin) at 100 nM
[5] = biological target: Phosphatidylinositol 4-kinase alpha (Homo sapiens) (UniProt P42356); assay: Inhibition of PI4Ka (unknown origin) at 100 nM
[6] = biological target: Testis-specific serine/threonine-protein kinase 1 (Homo sapiens) (UniProt Q9BXA7); assay: Inhibition of TSSK1 (unknown origin) at 100 nM
[7] = biological target: Serine/threonine-protein kinase Sgk3 (Homo sapiens) (UniProt Q96BR1); assay: Inhibition of SGK3 (unknown origin) at 100 nM
[8] = biological target: Epithelial discoidin domain-containing receptor 1 (Homo sapiens) (UniProt Q08345); assay: Inhibition of DDR1 (unknown origin) at 100 nM
[9] = biological target: Fibroblast growth factor receptor 2 (Homo sapiens) (UniProt P21802); assay: Inhibition of FGFR2 (unknown origin) at 100 nM
[10] = biological target: Receptor tyrosine-protein kinase erbB-2 (Homo sapiens) (UniProt P04626); assay: Inhibition of ERBB2 (unknown origin) at 100 nM
[11] = biological target: Tyrosine-protein kinase Lyn (Homo sapiens) (UniProt P07948); assay: Inhibition of LYNB (unknown origin) at 100 nM
[12] = biological target: Serine/threonine-protein kinase PAK 2 (Homo sapiens) (UniProt Q13177); assay: Inhibition of PAK2 (unknown origin) at 100 nM
[13] = biological target: Wee1-like protein kinase (Homo sapiens) (UniProt P30291); assay: Inhibition of WEE1 (unknown origin) at 100 nM
[14] = biological target: G protein-coupled receptor kinase 6 (Homo sapiens) (UniProt P43250); assay: Inhibition of GRK6 (unknown origin) at 100 nM
[15] = biological target: 3-phosphoinositide-dependent protein kinase 1 (Homo sapiens) (UniProt O15530); assay: Inhibition of PDK1 (unknown origin) at 100 nM
[16] = biological target: Tyrosine-protein kinase Fes/Fps (Homo sapiens) (UniProt P07332); assay: Inhibition of FES (unknown origin) at 100 nM
[17] = biological target: Serine/threonine-protein kinase 24 (Homo sapiens) (UniProt Q9Y6E0); assay: Inhibition of MST3 (unknown origin) at 100 nM
[18] = biological target: LIM domain kinase 2 (Homo sapiens) (UniProt P53671); assay: Inhibition of LIMK2 (unknown origin) at 100 nM
[19] = biological target: Phosphatidylinositol 4,5-bisphosphate 3-kinase catalytic subunit gamma isoform (Homo sapiens) (UniProt P48736); assay: Inhibition of PI3KG (unknown origin) at 100 nM
[20] = tested on: Receptor-type tyrosine-protein kinase FLT3 (Homo sapiens), P36888 [D835Y]; assay: Inhibition of FLT3 D835Y mutant (unknown origin) at 100 nM
[21] = biological target: Rhodopsin kinase GRK7 (Homo sapiens) (UniProt Q8WTQ7); assay: Inhibition of GRK7 (unknown origin) at 100 nM
[22] = biological target: Ribosomal protein S6 kinase alpha-6 (Homo sapiens) (UniProt Q9UK32); assay: Inhibition of RSK4 (unknown origin) at 100 nM
[23] = biological target: Cytoplasmic tyrosine-protein kinase BMX (Homo sapiens) (UniProt P51813); assay: Inhibition of BMX (unknown origin) at 100 nM
[24] = biological target: Calcium/calmodulin-dependent protein kinase type IV (Homo sapiens) (UniProt Q16566); assay: Inhibition of CamKIV (unknown origin) at 100 nM
[25] = biological target: Ephrin type-B receptor 4 (Homo sapiens) (UniProt P54760); assay: Inhibition of EPHB4 (unknown origin) at 100 nM
[26] = biological target: Interleukin-1 receptor-associated kinase 1 (Homo sapiens) (UniProt P51617); assay: Inhibition of IRAK1 (unknown origin) at 100 nM
[27] = biological target: Casein kinase I isoform gamma-2 (Homo sapiens) (UniProt P78368); assay: Inhibition of CK1gamma2 (unknown origin) at 100 nM
[28] = biological target: MAP/microtubule affinity-regulating kinase 4 (Homo sapiens) (UniProt Q96L34); assay: Inhibition of MARK4 (unknown origin) at 100 nM
[29] = biological target: Serine/threonine-protein kinase 33 (Homo sapiens) (UniProt Q9BYT3); assay: Inhibition of STK33 (unknown origin) at 100 nM
[30] = biological target: Dual specificity mitogen-activated protein kinase kinase 3 (Homo sapiens) (UniProt P46734); assay: Inhibition of MEK3 (unknown origin) at 100 nM
[31] = biological target: Macrophage-stimulating protein receptor (Homo sapiens) (UniProt Q04912); assay: Inhibition of RON (unknown origin) at 100 nM
[32] = biological target: Mitogen-activated protein kinase 3 (Homo sapiens) (UniProt P27361); assay: Inhibition of ERK1 (unknown origin) at 100 nM
[33] = biological target: Dual specificity tyrosine-phosphorylation-regulated kinase 1B (Homo sapiens) (UniProt Q9Y463); assay: Inhibition of DYRK1B (unknown origin) at 100 nM
[34] = biological target: Ephrin type-A receptor 5 (Homo sapiens) (UniProt P54756); assay: Inhibition of EPHA5 (unknown origin) at 100 nM
[35] = biological target: Epidermal growth factor receptor (Homo sapiens, UniProt P00533, L858R/T790M); assay: Inhibition of EGFR T790M/L858R mutant autophosphorylation in human H1975 cells; format: cell-based
[36] = biological target: Serine/threonine-protein kinase PAK 1 (Homo sapiens) (UniProt Q13153); assay: Inhibition of PAK1 (unknown origin) at 100 nM
[37] = biological target: Casein kinase I isoform epsilon (Homo sapiens) (UniProt P49674); assay: Inhibition of CK1epsilon1 (unknown origin) at 100 nM
[38] = biological target: Mitogen-activated protein kinase kinase kinase 9 (Homo sapiens) (UniProt P80192); assay: Inhibition of MLK1 (unknown origin) at 100 nM
[39] = biological target: Mitogen-activated protein kinase 14 (Homo sapiens) (UniProt Q16539); assay: Inhibition of p38alpha (unknown origin) at 100 nM
[40] = biological target: Aurora kinase A (Homo sapiens) (UniProt O14965); assay: Inhibition of Aurora A (unknown origin) at 100 nM
[41] = biological target: Casein kinase II subunit alpha' (Homo sapiens) (UniProt P19784); assay: Inhibition of CK2alpha2 (unknown origin) at 100 nM
Homo sapiens = species: Homo sapiens; assay: Inhibition of MET I250T mutant (unknown origin) at 100 nM

Chain of Dual specificity tyrosine-phosphorylation-regulated kinase 1B (Homo sapiens) (Q9Y463 whole entry, looked up): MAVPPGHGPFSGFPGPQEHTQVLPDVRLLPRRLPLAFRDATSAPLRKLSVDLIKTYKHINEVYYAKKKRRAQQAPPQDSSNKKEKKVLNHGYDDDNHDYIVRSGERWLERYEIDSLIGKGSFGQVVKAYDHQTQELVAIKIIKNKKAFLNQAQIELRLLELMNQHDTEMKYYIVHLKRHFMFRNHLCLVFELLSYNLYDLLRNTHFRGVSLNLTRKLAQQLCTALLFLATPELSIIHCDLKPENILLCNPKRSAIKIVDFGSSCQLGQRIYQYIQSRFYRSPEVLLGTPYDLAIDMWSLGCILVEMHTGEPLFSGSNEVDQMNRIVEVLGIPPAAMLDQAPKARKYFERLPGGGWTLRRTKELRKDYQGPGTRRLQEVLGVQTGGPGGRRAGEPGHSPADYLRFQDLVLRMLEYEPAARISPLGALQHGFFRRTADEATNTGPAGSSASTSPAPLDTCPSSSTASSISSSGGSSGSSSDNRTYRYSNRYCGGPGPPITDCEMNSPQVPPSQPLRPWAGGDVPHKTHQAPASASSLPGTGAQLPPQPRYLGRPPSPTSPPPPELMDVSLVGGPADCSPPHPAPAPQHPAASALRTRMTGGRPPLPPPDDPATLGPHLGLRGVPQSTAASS
Chain of Receptor tyrosine-protein kinase erbB-2 (Homo sapiens) (P04626 whole entry): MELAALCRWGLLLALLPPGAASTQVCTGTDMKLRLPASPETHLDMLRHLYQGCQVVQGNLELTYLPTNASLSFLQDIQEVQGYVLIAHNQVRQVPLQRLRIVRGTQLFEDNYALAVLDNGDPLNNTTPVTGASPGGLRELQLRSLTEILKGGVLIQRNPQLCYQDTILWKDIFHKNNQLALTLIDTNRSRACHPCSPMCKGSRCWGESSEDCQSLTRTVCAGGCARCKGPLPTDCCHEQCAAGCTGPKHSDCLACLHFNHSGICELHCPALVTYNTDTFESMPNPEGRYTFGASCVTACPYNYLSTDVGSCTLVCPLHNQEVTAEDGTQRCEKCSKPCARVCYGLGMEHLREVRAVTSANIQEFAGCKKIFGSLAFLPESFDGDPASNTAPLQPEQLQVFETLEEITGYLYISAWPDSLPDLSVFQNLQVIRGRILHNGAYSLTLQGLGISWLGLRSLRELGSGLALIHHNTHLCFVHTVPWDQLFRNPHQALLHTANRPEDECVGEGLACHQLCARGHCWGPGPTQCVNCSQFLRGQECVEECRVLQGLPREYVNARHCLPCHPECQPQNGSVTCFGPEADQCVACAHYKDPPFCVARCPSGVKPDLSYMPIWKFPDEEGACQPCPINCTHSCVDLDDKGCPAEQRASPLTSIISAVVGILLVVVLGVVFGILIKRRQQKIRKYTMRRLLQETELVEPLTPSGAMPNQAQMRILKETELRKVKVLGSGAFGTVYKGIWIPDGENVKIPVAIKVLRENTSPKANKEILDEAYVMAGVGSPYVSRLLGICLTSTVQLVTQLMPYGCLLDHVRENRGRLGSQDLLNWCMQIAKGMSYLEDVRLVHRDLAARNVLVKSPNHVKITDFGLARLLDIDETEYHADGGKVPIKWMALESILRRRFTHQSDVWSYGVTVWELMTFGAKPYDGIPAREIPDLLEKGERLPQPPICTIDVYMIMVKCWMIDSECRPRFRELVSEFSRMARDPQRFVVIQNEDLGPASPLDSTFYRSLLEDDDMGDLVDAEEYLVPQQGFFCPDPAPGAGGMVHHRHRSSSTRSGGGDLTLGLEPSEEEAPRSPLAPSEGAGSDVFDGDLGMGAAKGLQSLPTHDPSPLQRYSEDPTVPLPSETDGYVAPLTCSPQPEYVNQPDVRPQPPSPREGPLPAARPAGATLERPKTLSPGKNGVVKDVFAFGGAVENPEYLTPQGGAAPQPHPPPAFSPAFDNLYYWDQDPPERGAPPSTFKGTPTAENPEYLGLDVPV
Chain of Serine/threonine-protein kinase B-raf (Homo sapiens) (P15056 whole entry): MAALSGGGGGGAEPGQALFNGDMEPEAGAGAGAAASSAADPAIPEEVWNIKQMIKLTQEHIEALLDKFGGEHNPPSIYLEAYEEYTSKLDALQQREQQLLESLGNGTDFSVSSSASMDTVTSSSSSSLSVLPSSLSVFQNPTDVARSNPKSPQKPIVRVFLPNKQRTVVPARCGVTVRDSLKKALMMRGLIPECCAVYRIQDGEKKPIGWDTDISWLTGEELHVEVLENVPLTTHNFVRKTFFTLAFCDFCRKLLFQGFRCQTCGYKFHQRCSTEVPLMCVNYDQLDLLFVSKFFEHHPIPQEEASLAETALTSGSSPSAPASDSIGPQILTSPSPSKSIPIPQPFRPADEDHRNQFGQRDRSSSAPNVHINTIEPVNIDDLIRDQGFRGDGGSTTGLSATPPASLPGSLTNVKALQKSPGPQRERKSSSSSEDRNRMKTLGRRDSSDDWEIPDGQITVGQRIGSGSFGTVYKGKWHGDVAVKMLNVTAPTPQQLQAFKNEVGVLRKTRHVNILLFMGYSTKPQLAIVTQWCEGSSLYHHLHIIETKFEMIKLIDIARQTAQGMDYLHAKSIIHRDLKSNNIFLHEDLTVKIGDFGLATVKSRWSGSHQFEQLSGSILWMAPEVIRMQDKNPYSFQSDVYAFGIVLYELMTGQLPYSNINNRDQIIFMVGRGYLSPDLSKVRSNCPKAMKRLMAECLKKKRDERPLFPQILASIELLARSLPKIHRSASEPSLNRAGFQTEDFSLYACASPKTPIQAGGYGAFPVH
Chain of Tyrosine-protein kinase Fes/Fps (Homo sapiens) (P07332 whole entry): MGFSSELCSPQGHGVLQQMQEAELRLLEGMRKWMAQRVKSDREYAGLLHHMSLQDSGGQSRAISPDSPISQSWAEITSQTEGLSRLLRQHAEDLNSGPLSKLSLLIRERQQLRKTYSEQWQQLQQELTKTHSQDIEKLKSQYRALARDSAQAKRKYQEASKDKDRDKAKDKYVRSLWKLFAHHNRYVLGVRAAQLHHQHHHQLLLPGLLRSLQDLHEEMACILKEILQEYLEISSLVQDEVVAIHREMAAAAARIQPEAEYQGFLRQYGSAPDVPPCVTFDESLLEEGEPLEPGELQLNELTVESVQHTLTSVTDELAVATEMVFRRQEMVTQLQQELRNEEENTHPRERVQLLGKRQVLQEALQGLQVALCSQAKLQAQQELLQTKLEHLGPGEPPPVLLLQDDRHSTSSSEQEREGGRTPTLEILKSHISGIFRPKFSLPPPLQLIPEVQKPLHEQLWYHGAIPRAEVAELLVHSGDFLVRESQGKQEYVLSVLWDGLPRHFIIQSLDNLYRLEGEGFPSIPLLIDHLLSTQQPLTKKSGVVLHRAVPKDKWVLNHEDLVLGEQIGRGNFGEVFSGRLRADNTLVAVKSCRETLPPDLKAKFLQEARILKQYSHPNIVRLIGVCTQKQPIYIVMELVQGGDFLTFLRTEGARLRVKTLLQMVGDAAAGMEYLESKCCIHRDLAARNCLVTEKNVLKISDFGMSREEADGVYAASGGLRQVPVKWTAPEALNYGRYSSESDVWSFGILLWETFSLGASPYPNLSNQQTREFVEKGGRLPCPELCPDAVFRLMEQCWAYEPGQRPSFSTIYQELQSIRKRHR
Chain of Testis-specific serine/threonine-protein kinase 1 (Homo sapiens) (Q9BXA7 whole entry): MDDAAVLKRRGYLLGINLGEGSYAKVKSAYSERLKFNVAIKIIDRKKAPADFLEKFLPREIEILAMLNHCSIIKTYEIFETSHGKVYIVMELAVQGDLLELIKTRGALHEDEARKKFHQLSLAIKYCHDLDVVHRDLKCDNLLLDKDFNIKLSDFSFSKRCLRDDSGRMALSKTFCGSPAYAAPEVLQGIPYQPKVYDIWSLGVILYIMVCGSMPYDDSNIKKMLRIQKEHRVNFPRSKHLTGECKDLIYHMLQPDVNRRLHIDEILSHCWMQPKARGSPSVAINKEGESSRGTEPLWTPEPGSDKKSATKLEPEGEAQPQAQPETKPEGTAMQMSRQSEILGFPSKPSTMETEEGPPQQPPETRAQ
Chain of Dual specificity mitogen-activated protein kinase kinase 3 (Homo sapiens) (P46734 whole entry): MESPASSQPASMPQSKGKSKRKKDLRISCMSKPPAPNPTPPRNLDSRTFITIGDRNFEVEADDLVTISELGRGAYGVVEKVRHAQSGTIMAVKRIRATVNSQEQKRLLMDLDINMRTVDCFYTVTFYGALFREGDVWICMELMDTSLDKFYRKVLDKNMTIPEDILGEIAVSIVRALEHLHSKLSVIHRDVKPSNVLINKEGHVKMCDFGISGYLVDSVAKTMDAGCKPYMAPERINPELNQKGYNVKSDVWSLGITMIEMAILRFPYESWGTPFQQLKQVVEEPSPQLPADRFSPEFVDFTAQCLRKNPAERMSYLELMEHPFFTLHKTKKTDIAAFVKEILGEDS
Chain of Aurora kinase A (Homo sapiens) (O14965 whole entry): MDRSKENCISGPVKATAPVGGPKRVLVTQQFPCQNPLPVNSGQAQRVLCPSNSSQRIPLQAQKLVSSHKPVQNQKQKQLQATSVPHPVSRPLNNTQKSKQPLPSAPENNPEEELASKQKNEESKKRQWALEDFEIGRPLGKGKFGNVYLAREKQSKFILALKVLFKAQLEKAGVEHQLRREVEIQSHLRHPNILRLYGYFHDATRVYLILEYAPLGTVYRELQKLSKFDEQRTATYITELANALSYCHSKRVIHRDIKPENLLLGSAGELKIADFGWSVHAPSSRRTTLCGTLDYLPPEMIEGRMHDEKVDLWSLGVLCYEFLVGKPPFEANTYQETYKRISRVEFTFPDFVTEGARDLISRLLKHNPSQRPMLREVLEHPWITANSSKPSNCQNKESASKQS
Chain of Casein kinase II subunit alpha' (Homo sapiens) (P19784 whole entry, looked up): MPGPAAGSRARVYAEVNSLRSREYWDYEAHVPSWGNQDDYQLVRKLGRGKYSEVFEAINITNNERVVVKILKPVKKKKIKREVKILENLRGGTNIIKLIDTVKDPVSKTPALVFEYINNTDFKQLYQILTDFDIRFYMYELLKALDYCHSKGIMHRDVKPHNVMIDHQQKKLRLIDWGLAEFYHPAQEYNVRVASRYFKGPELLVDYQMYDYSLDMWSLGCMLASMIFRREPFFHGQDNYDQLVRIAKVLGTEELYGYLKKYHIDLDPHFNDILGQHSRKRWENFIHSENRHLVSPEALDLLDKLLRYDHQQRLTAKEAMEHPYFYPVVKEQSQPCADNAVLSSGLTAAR

## CC1(C)OCc2c(Nc3n[nH]c4ccccc34)nc(-c3cn[nH]c3)nc21
[1]
  inhibition: 59.3%
[2]
  inhibition: -3.6%
[3]
  inhibition: 7%
[4]
  inhibition: 16%
[5]
  inhibition: -2.6%
[6]
  inhibition: -0.5%
[7]
  inhibition: 3.1%
[8]
  inhibition: 52.6%
[9]
  inhibition: 54%
[10]
  inhibition: 57.2%
[11]
  inhibition: 89.4%
[12]
  inhibition: 0.3%
[13]
  inhibition: 36.1%
[14]
  inhibition: 1.6%
[15]
  inhibition: 3.4%
[16]
  inhibition: 6%
[17]
  inhibition: 0.8%
[18]
  inhibition: -2.1%
[19]
  inhibition: 15.1%
[20]
  inhibition: 24.8%
[21]
  inhibition: 0.8%
[22]
  inhibition: 9.8%
[23]
  inhibition: 13.7%
[24]
  inhibition: 15%
[25]
  inhibition: 40.7%
[26]
  inhibition: 2.2%
[27]
  inhibition: 3.5%
[28]
  inhibition: 2.5%
[29]
  inhibition: 4.2%
[30]
  inhibition: 14.1%
[31]
  inhibition: 3.8%
[32]
  inhibition: 10.9%
[33]
  inhibition: -1.6%
[34]
  inhibition: 15.7%
[35]
  IC50: 0.6 µM
[36]
  inhibition: -4.1%
[37]
  inhibition: 5.1%
[38]
  inhibition: 2.9%
[39]
  inhibition: 44.5%
[40]
  inhibition: -5.4%
[41]
  inhibition: 4.2%
Homo sapiens
  inhibition: 4%
